Measurements reported in patent US20240173319A1, “SOLID DOSE PHARMACEUTICAL COMPOSITION” (Sumitomo Pharma Oncology, Inc., priority 2019, published 2024).

Key:
Type in all cases: physicochemical
[1] = Log D (pH 7.4) of the API
Description: The hydrochloride salt of the compound of formula (I) was formulated into three (3) oral dose strengths (5, 25, and 125 mg dose [based on free base]). The physicochemical properties of the compound of formula (I), the active pharmaceutical ingredient (API), are summarized in Table 1.

[2] = Solubility of the API in media
Description: The solubility of the API was tested. In all media, solubility of the compound is good, namely the maximum tested dose of 125 mg was found soluble in 250 mL of media. […] This characterization may not be accurate for larger doses. Reference is made to Table 2.

[3] = Excipient compatibility study, related substances (unknown RRT)
Description: An initial excipient compatibility study was performed.
In the compatibility study, all the samples were evaluated for two (2) primary properties: appearance and related substances.
(close) for 4W with respect to their related substance profile.

[4] = 40° C./75% RH, open glass vial, 4 week

Structure (SMILES): COc1cc(Nc2nccc(Nc3cccnc3-c3ccccn3)n2)ccc1N1CCN(C)CC1.Cl [API, N2-[3-methoxy-4-(4-methylpiperazin-1yl)phenyl]-N4-[2-(pyridin-2-yl)pyridin 3-yl] pyrimidine-2,4-diamine hydrochloride]
- logD [1]: 2.66
- Maximum dose mg solubility in 250 ml ([2]; 0.1N HCl): 256 mg
- solubility ([2]; 0.1N HCl, pH 1.005, simulated gastric fluid): 1030 µg/mL
- Maximum dose mg solubility in 250 ml ([2]; Water): 252 mg
- Solubility characterization with reference to BCS classification ([2]; maximum tested dose of 125 mg in 250 mL of media): highly soluble
- Maximum dose mg solubility in 250 ml ([2]; pH 4.5 Acetate buffer): 253 mg
- solubility ([2]; pH 4.5 acetate buffer, pH 4.508, aqueous buffer): 1010 µg/mL
- Maximum dose mg solubility in 250 ml ([2]; pH 6.8 Phosphate buffer): 245 mg
- solubility ([2]; pH 6.8 phosphate buffer, pH 6.812, aqueous buffer): 980 µg/mL
- solubility ([2]; water, pH 6.213, water): 1010 µg/mL
- Total (related substances) [3, 4]: 0.84%
- Unknown RRT 0.162 [3, 4]: 0.11%
- Unknown RRT 0.866 [3, 4]: BQL
- Unknown RRT 0.989 [3, 4]: BQL
- Unknown RRT 1.046 [3, 4]: BQL
- Unknown RRT 1.07 [3, 4]: 0.07%
- Unknown RRT 1.08 [3, 4]: 0.05%
- Unknown RRT 1.341 [3, 4]: 0.2%
- Unknown RRT 1.38 [3, 4]: 0.1%
- Unknown RRT 1.549 [3, 4]: 0.19%
- Unknown RRT 1.633 [3, 4]: 0.12%
- Total (related substances) ([3]; Initial): 0.93%
- Unknown RRT 0.162 ([3]; Initial): 0.12%
- Unknown RRT 0.989 ([3]; Initial): BQL
- Unknown RRT 1.046 ([3]; Initial): BQL
- Unknown RRT 1.07 ([3]; Initial): 0.07%
- Unknown RRT 1.08 ([3]; Initial): 0.06%
- Unknown RRT 1.341 ([3]; Initial): 0.27%
- Unknown RRT 1.38 ([3]; Initial): 0.08%
- Unknown RRT 1.549 ([3]; Initial): 0.21%
- Unknown RRT 1.633 ([3]; Initial): 0.12%
